Measurements: patent US20250255958A1, “VIRUS-FREE CRISPR CAR NATURAL KILLER CELLS” (Wisconsin Alumni Research Foundation, priority 2024, published 2025)
“And” between values parts separate entries of the source, which are not always exact repeats. Identical values can stand only once.

Legend:
[1] = biological target: T1, DNA-dependent protein kinase (DNA-PK) (Homo sapiens, UniProt P78527); type: cell-based
T1 construct: NK cells were nucleofected on day 4 with the RNP complex and dsDNA, and incubated with M3814 at various concentrations; endogenous in cells; host or cells: primary peripheral-blood NK cells
Method: Nucleofection: NK-cells were nucleofected on day 4, unless otherwise described for optimization experiments. Post-nucleofection recovery medium (Complete NK MACS® medium (Miltenyi) with 100 IU/mL IL-2 (Peprotech) and 2 ng/mL IL-15 (Peprotech)+/−0.6 uM M3814 (Selleck Chem)) was prepared, with M3814 added at 1.2× the working concentration to account for future dilution. For M3814 related optimization experiments, multiple aliquots of post-recovery medium were prepared with a corresponding concentration of M3814. 150 μL of M3814 recovery medium was plated into individual wells of a 96-well round bottom plate for each replicate and set aside in the incubator. PB-NK cells were harvested and counted using the Countess® II FL Automated Cell Counter (Thermo Fisher Scientific) with 0.4% Trypan Blue viability stain (Thermo Fisher Scientific). 5e5 cells were aliquoted into individual 1.5 mL Eppendorf Tubes® for each nucleofection replicate. While the RNP complexes incubated, the cells were pelleted at 100 g for 10 minutes, and 3 μg (1.5 μL) of dsDNA templates were aliquoted into PCR tubes for each replicate. Following incubation, the RNP complexes were added to the dsDNA templates and were allowed to incubate for 3-5 minutes at room temperature. Cell pellets were resuspended in P3 buffer with 22% supplement (Lonza), and combined with the RNP+dsDNA mixture, for a total volume of […]. Samples were added to the 24 μL reaction cuvettes (Lonza) and were nucleofected using the EH-100 program (Lonza Amaxa™ 4D-Nucleofector®), unless specified otherwise for optimization experiments. Immediately after nucleofection, 100 μL of pre-warmed recovery medium (no M3814) was added to each of the cuvette wells, and samples were rested at 37° C. for 15 minutes. Finally, samples were transferred from the cuvette to the 96-well plate containing pre-warmed recovery medium with M3814. After 24 hours, nucleofected NK cells were combined with irradiated K562-mb15-41BBL (100 Gy) at a 1:2 ratio in complete NK MACS medium with 100 IU/mL IL-2 and 2 ng/mL IL-15.
NK cells were nucleofected on day 4 with the RNP complex and dsDNA, and incubated with M3814 at various concentrations. Nucleofected cells were expanded for one week and assayed by flow cytometry for NKG2A knock-out and transgene expression.

[2] = system: NKG2A; details: Huang et al.; cited from earlier work
[3] = system: KLRC1 gene; experiment: Indel formation by NGS after Cas9 RNP nucleofection of NK-92 cells; type: cell-based, human; details: SpCas9 RNP, NGS after two weeks of culture, exon 3
Method: On-target editing analysis via Next Generation Sequencing: Genomic DNA was extracted and indel formation was analyzed via next generation sequencing (Illumina) as previously described in the art. Briefly, edited amplicons were amplified and purified using genomic PCR and SPRI cleanup, respectively. A second PCR was performed with indexing primers to attach unique dual identifiers (Illumina®) to the amplicons. After a second SPRI cleanup, samples were combined and run on the Illumina® MiniSeq™ per the manufacturer's instructions and analyzed using the CRISPR RGEN software.
The editing strategy to improve NK potency against solid tumors involves knocking out the NKG2A receptor that can inhibit cytotoxicity within solid tumors (FIG. 1A), while simultaneously conferring specificity of cytotoxicity to a target antigen on the cancer. To knock out the NKG2A receptor, three single-guide RNAs (sgRNAs) were designed against several common coding exons in the KLRC1 gene (FIG. 1B). Ribonucleoproteins (RNPs) were generated upon the complexation of these sgRNAs with SpCas9 to generate double-stranded DNA breaks at these targets within KLRC1. NK-92 cells, a human cell line derived from non-hodgkin lymphoma, were nucleofected with RNPs containing one of these sgRNAs, and assessed for insertions or deletions (indels) around the targeted site after two weeks of cell culture. […]

[4] = system: KLRC1; details: primary T cells, Bexte et al.; cited from earlier work
[5] = system: human genome; experiment: Genome-wide off-target analysis by CHANGE-seq; type: biochemical
Method: Off-target analysis via genome wide CHANGE-seq: The Gentra® Puregene® kit (Qiagen, Germantown, MD) was used to extract genomic DNA from unedited primary NK cells per the manufacturer's instructions. Genomic analysis was performed by CHANGE-Seq as described previously in the art. In short, genomic DNA underwent tagmentation with a custom Tn5-transposome, and was gap repaired with HiFi HotStart Uracil+ Ready Mix (Kapa Biosystems, Wilmington, MA). USER enzyme (NEB, Ipswich, MA) and T4 polynucleotide was then used to treat the gap-repaired DNA. DNA circularization was performed using T4 DNA ligase (NEB, Ipswich, MA), followed by treatment with a mixture of exonucleases to remove residual linear DNA. In vitro cleavage reactions were performed on the circularized DNA using SpCas9 protein (NEB, Ipswich, MA) and KLRC1 sgRNA. Cleaved products were incubated with proteinase K (NEB, Ipswich, MA), A-tailed, ligated with a hairpin adapter (NEB, Ipswich, MA), and treated with USER enzyme (NEB, Ipswich, MA). Products were amplified by PCR with the Kapa HiFi polymerase (Kapa Biosystems, Wilmington, MA), and libraries were quantified by qPCR (Kapa Biosystems, Wilmington, MA). Libraries were sequenced with 150 bp paired-end reads on the Illumina NextSeq2000 instrument. CHANGE-seq data analyses were performed as described previously.

Compound	cell expansion after nucleofection [1]	improvement of HDR outcomes [1]	percent of NKG2A− cells [1]	percentage of transgene expression [1]	NKG2A knock-out [2]	indel frequencies [2]	indel formation [3]	indel frequency [4]	sites having off-target activity near a transcription start site (TSS) ([5]; CHANGE-seq)	sites having off-target nuclease activity within exons ([5]; CHANGE-seq)	CHANGE-seq specificity ratio ([5]; on-target reads divided by sum of total reads)
COc1ccc([C@@H](O)c2cc(-c3ncnc4cc(N5CCOCC5)ccc34)c(F)cc2Cl)nn1 [M3814]	did not affect cell expansion	two-fold	around 75%	11.9% and 12.8%	–	–	–	–	–	–	–
GGTCTGAGTAGATTACTCCT(TGG) (guide GGUCUGAGUAGAUUACUCCU; listed as RNA, chemistry not given here) [gRNA1]	–	–	–	–	less than 25%	> 80%	98%	58-80%	8	10	0.038
